Some test systems named below: 786-0; A498; BT-549; CAKI-1; CCRF-CEM; HCC 2998; HCT-15; HT-29; Hs-578T; MOLT-4; RXF 393; SF-295; SF-539; SK-OV-3; SNB-19; SNB-75; TK-10; U-251; UO-31; RPMI-8226.
What all share (test): growth of human tumour cells (NCI), 48 h

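The compound was tested at five concentrations on cells cultured in 96-well plates, with a 48-hour exposure period. GI50 marks 50% less growth.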 The source made the active and inactive calls. Cut-off read from the data, not from the text of the source: active = GI50 up to about 1.1 µM and inactive = higher.

Take `CC(=O)N(CCc1ccccc1)C(C#N)c1ccc(OCCCCCCCCCCOc2ccc(C(C#N)N(CCc3ccccc3)C(C)=O)cc2)cc1` (stereo not drawn): the GI50 with 786-0 was 16.2 µM (inactive); in the experiment with A498, 31.3 µM (inactive); in the experiment on BT-549, 33 µM (inactive); in the experiment on CAKI-1, 97.3 µM (inactive); in the experiment with CCRF-CEM it was > 100 µM (inactive); in the experiment on HCC 2998, > 100 µM (inactive). Besides, the GI50 in the experiment with HCT-15 was 99.1 µM; with HT-29 it was > 100 µM (inactive); in the experiment with Hs-578T, 17.1 µM (inactive); in the experiment with MOLT-4 it was > 100 µM (inactive); in the experiment on RXF 393, 22.6 µM (inactive); with SF-295, 12.4 µM (inactive). For the same compound, the GI50 in the experiment with SF-539 is 23.3 µM (inactive); in the experiment on SK-OV-3, 22.9 µM (inactive); in the experiment with SNB-19 it was 20.5 µM (inactive); in the experiment with SNB-75, 17.7 µM (inactive); in the experiment with TK-10 it was 41.2 µM (inactive); in the experiment with U-251, 21.7 µM (inactive). Moreover, the GI50 with UO-31 was 62.2 µM (inactive).

Regarding `Cc1ccc2nc(-n3c(/C=C/c4ccccc4O)nc4ccccc4c3=O)sc2c1`, the GI50 in the experiment with 786-0 is > 100 µM (inactive); with A498 it was > 100 µM (inactive); in the experiment with BT-549, > 100 µM (inactive); with CAKI-1, > 100 µM (inactive); in the experiment with CCRF-CEM, 16.5 µM (inactive); in the experiment on HCC 2998 it was > 100 µM (inactive). The GI50 with HCT-15 is over 100 µM; in the experiment on HT-29 it was > 100 µM (inactive); in the experiment on Hs-578T it was > 100 µM (inactive); with MOLT-4 it was > 100 µM (inactive); in the experiment on RPMI-8226, 76.4 µM (inactive); in the experiment with RXF 393 it was > 100 µM (inactive). The GI50 with SF-295, with SK-OV-3, in the experiment on SNB-19, with SNB-75, in the experiment on TK-10 and with U-251 was > 100 µM (inactive) throughout. Also, the GI50 in the experiment with UO-31 was > 100 µM (inactive).

Consider `COC(NC(=O)Nc1ccccc1C)(C(F)(F)F)C(F)(F)F`, for which the GI50 was > 100 µM (inactive) in the experiment on 786-0; > 100 µM (inactive) in the experiment with A498; 94.4 µM (inactive) in the experiment with BT-549; 40.7 µM (inactive) in the experiment with CCRF-CEM; > 100 µM (inactive) in the experiment with HCC 2998; > 100 µM (inactive) in the experiment on HT-29. In addition, the GI50 was > 100 µM (inactive) with Hs-578T; > 100 µM (inactive) in the experiment with MOLT-4; > 100 µM (inactive) in the experiment with RPMI-8226; 1.21 µM (inactive) in the experiment on RXF 393; > 100 µM (inactive) with SF-295; > 100 µM (inactive) in the experiment on SF-539. Further, the GI50 in the experiment on SK-OV-3 was > 100 µM (inactive); in the experiment with SNB-19, 44.4 µM (inactive); in the experiment with SNB-75, > 100 µM (inactive); with TK-10 it was > 100 µM (inactive); in the experiment with U-251, 34.5 µM (inactive); in the experiment on UO-31, > 100 µM (inactive).

As to `CCC/C(=N\NC(=S)N1CCN(c2ccccn2)CC1)c1ccccn1`, the GI50 in the experiment on 786-0 was 0.0251 µM (active); with A498, 0.541 µM (active); in the experiment with BT-549 it was 0.0212 µM (active); in the experiment with CAKI-1, 0.179 µM (active); with HCC 2998, 0.0594 µM (active); in the experiment on HCT-15, 0.00528 µM. Further, the GI50 was 0.00137 µM (active) in the experiment with HT-29; 0.213 µM (active) in the experiment with Hs-578T; 0.00115 µM (active) in the experiment with RPMI-8226; 0.269 µM (active) in the experiment with RXF 393; 0.00979 µM (active) with SF-295; 0.437 µM (active) with SK-OV-3. Also, the GI50 in the experiment on SNB-19 was 0.0142 µM (active); in the experiment on TK-10, 0.335 µM (active); with U-251 it was 0.00312 µM (active); in the experiment with UO-31 it was 0.0702 µM (active).

As for `CS(=N)(=O)CCC(N)P(=O)(O)O` (stereo not drawn), the GI50 in the experiment on 786-0 is > 100 µM (inactive); in the experiment on A498, > 100 µM (inactive); in the experiment with BT-549, > 100 µM (inactive); with CAKI-1, > 100 µM (inactive); in the experiment with HCC 2998 it was > 100 µM (inactive); in the experiment with HCT-15, over 100 µM. Moreover, the GI50 in the experiment with HT-29, in the experiment with Hs-578T, with MOLT-4, in the experiment with RPMI-8226, in the experiment with RXF 393 and with SF-295 was > 100 µM (inactive) each time. For the same compound, the GI50 in the experiment with SF-539, with SK-OV-3, in the experiment on SNB-19, in the experiment on TK-10, in the experiment with U-251 and in the experiment with UO-31 was > 100 µM (inactive) each time.

On to `Cc1ccc(OC2CC(n3cnc4c(=O)[nH]c(Br)nc43)OC2Oc2ccc(C)cc2)cc1` (stereo not drawn), for which the GI50 in the experiment with 786-0 is 26.3 µM (inactive); in the experiment on A498, > 100 µM (inactive); in the experiment on BT-549, 26.9 µM (inactive); with CAKI-1 it was 24.9 µM (inactive); with CCRF-CEM, 23.1 µM (inactive); in the experiment with HCC 2998, 24 µM (inactive). For the same compound, the GI50 in the experiment with HCT-15 is 30.3 µM; with HT-29 it was 28.6 µM (inactive); in the experiment on Hs-578T, 24.5 µM (inactive); with MOLT-4 it was 23.9 µM (inactive); in the experiment on RPMI-8226, 34.4 µM (inactive); in the experiment on RXF 393, 22.5 µM (inactive). In addition, the GI50 with SF-295 was 21.7 µM (inactive); with SF-539, 20.2 µM (inactive); in the experiment with SK-OV-3 it was 34.5 µM (inactive); in the experiment with SNB-19 it was 21.5 µM (inactive); in the experiment with TK-10, 23.2 µM (inactive); in the experiment with U-251 it was 29.1 µM (inactive). The GI50 in the experiment on UO-31 is 19.1 µM (inactive).

Take `CCOc1cc(C2CC(c3ccc(NS(=O)(=O)c4cc([N+](=O)[O-])ccc4C)cc3)=NN2C(=O)c2ccccc2)ccc1O` (stereo not drawn): the GI50 with 786-0 is 23.1 µM (inactive); in the experiment on A498 it was 10.2 µM (inactive); in the experiment on BT-549, 20.1 µM (inactive); with CAKI-1, 24.7 µM (inactive); in the experiment on CCRF-CEM, 20.7 µM (inactive); in the experiment on HCT-15 it was 12.9 µM. Further, the GI50 with HT-29 is 26.5 µM (inactive); with Hs-578T it was 16.8 µM (inactive); with MOLT-4, 19.4 µM (inactive); in the experiment on RPMI-8226 it was 31.5 µM (inactive); in the experiment on RXF 393, 11.4 µM (inactive); in the experiment with SF-295, 20.8 µM (inactive). Besides, the GI50 in the experiment on SF-539 was 20.9 µM (inactive); with SK-OV-3, 18.2 µM (inactive); in the experiment with SNB-19, 29.6 µM (inactive); in the experiment on SNB-75 it was 14.1 µM (inactive); in the experiment with TK-10 it was 14.2 µM (inactive); in the experiment with U-251 it was 18.7 µM (inactive). Also, the GI50 with UO-31 was 15.2 µM (inactive).

As to `CC(=O)OCC1=C(C)C[C@H]([C@@H](COC(C)=O)C2CCC3C4C[C@H]5O[C@]56CC=CC(=O)[C@]6(C)C4CC[C@@]32C)OC1=O` (stereo partly drawn), the GI50 is 0.19 µM (active) with 786-0; 0.624 µM (active) in the experiment on A498; 0.26 µM (active) in the experiment on BT-549; 0.671 µM (active) in the experiment with CAKI-1; 0.0191 µM (active) with CCRF-CEM; 0.573 µM (active) in the experiment on HCC 2998. For the same compound, the GI50 in the experiment on HCT-15 was 0.083 µM; in the experiment on HT-29, 0.123 µM (active); in the experiment on Hs-578T, 1 µM (active); with MOLT-4, 0.0204 µM (active); in the experiment with RPMI-8226, 0.0393 µM (active); in the experiment on RXF 393, 0.369 µM (active). Besides, the GI50 with SF-295 is 1.19 µM (inactive); in the experiment on SK-OV-3 it was 1.79 µM (inactive); in the experiment with SNB-19, 0.681 µM (active); in the experiment on SNB-75 it was 2.16 µM (inactive); in the experiment with TK-10 it was 0.993 µM (active); in the experiment on U-251 it was 0.329 µM (active). Besides, the GI50 in the experiment with UO-31 is 0.993 µM (active).

Consider `c1ccc([I+]c2ccccc2)cc1`, for which the GI50 in the experiment with 786-0, in the experiment with A498, in the experiment with BT-549, in the experiment on CAKI-1, with CCRF-CEM and in the experiment on HCC 2998 was > 100 µM (inactive) in each case. For the same compound, the GI50 in the experiment on HCT-15 is over 100 µM; with HT-29, > 100 µM (inactive); in the experiment on Hs-578T, > 100 µM (inactive); in the experiment with MOLT-4, > 100 µM (inactive); in the experiment with RPMI-8226 it was > 100 µM (inactive); in the experiment on RXF 393 it was > 100 µM (inactive). In addition, the GI50 in the experiment on SF-295, with SF-539, in the experiment on SK-OV-3, in the experiment with SNB-19, in the experiment with TK-10 and with U-251 was > 100 µM (inactive) in each case. In the experiment on UO-31, the GI50 is > 100 µM (inactive).

For `c1ccc([P+](CCNCCNCC[P+](c2ccccc2)(c2ccccc2)c2ccccc2)(c2ccccc2)c2ccccc2)cc1`, the GI50 in the experiment on 786-0 is > 100 µM (inactive); with A498, > 100 µM (inactive); in the experiment with BT-549 it was > 100 µM (inactive); in the experiment on HCC 2998, > 100 µM (inactive); in the experiment on HCT-15, over 100 µM; with HT-29 it was > 100 µM (inactive). Moreover, the GI50 with Hs-578T, in the experiment with MOLT-4, in the experiment with RPMI-8226, in the experiment on RXF 393, in the experiment on SF-295 and in the experiment with SF-539 was > 100 µM (inactive) each time. Also, the GI50 in the experiment on SK-OV-3, in the experiment on SNB-19, in the experiment on SNB-75, in the experiment with TK-10, in the experiment with U-251 and in the experiment with UO-31 was > 100 µM (inactive) each time.

Turning to `Cc1cc(/N=N/c2ccccc2C)ccc1N`, the GI50 in the experiment with 786-0 is 10.5 µM (inactive); in the experiment on A498, 24.3 µM (inactive); in the experiment with BT-549 it was 10.6 µM (inactive); in the experiment with CAKI-1, 15.3 µM (inactive); with CCRF-CEM, 1.42 µM (inactive); with HCC 2998, 12.4 µM (inactive). Moreover, the GI50 in the experiment on HCT-15 was 12.1 µM; in the experiment on HT-29 it was 17.3 µM (inactive); with Hs-578T, 15.7 µM (inactive); in the experiment on MOLT-4, 2.65 µM (inactive); in the experiment on RXF 393, 6.82 µM (inactive); in the experiment with SF-295 it was 11.5 µM (inactive). Also, the GI50 is 2.54 µM (inactive) with SF-539; 24.8 µM (inactive) in the experiment with SK-OV-3; 31 µM (inactive) in the experiment on SNB-19; 5.94 µM (inactive) in the experiment on SNB-75; 19.6 µM (inactive) in the experiment with TK-10; 14.3 µM (inactive) in the experiment with U-251. In addition, the GI50 in the experiment with UO-31 was 3.02 µM (inactive).

Values taken from ChEMBL document CHEMBL1201862, “PubChem BioAssay data set” (2004).
